Results published in patent publication US20070099232A1, “Ecdysone receptor ligand-binding domain structure” (priority 2003, published 2007).

Assays:
[1] = system: Choristoneura fumiferana EcR A110P; details: single point mutation A110P; cited from earlier work
[2] = system: BtEcR; assay: BtEcR competitive binding assay with [3H]-ponasterone A as tracer; parameters: species or system Bemisia tabaci
Text: As will be readily understood by persons skilled in this field, the methods of the present invention provide a rational method for designing and selecting compounds which interact with an ecdysone receptor and specifically that of B. tabaci. In the majority of cases these compounds will require further development in order to increase activity. Such further development is routine in this field and will be assisted by the structural information provided in this application and screens employing EcR and optionally USP nucleotide and/or polypeptide sequences. In vitro competitive binding screens compete unlabelled test compounds against a labelled ligand (tracer) to observe if they inhibit the binding of the latter to functional receptor LBDs. In vitro competition binding screens may utilise LBD sequences or D (linker) domain sequences linked to LBD sequences. In vivo cell-based screens employ full-length EcR and optionally full-length USP nucleotide sequences functionally linked to suitable promoters for expression in mammalian, insect or yeast cells containing a suitable reporter gene construct. Alternatively, in vivo cell-based screens may employ the EF or DEF domain encoding regions of EcR and optionally of USP nucleotide sequences functionally linked to nucleotide sequences encoding domains from other transcription factors. In particular, the BtEcR nucleotide sequence (SEQ ID NO 1) and/or polypeptide sequence (SEQ ID NO 2) and optionally BtUSP nucleotide sequence and/or polypeptide sequence or the corresponding EF or DEF domains may be utilised in screens to develop improved compounds derived by rational design employing the B. tabaci EcR/USP crystal structure. It is intended that in particular embodiments the methods of the present invention includes such further developmental steps.
Biological assays to measure the activity of ecdysone receptor agonists and antagonists are well known in the field. Traditional screens for ecdysone receptor agonists examine candidate compounds for an ability to induce the moulting or pupation of whole insect larvae (Becker, 1941; Cymborowski, 1989), the evagination of imaginal discs (Fristrom J. W. & Yund, 1976) or morphological transformation of the Drosophila BII cell line (Clément et al., 1993). More recent assays use mammalian or other eukaryotic cells that have been co-transfected with a recombinant ecdysone receptor and a reporter gene linked to an appropriate response element Both types of screen can also be reformatted to detect non-agonist ligands (antagonists), which can be recognised by their ability to inhibit the activation the receptor by an agonist provided as a standard component of the assay (Yang et al., 1986; Oberdorster et al., 2001)(Oberdorster et al, 2001). […] In addition, potential agonists and antagonists may be screened for their ability to inhibit the binding of europium-labelled ecdysone receptor ligands to soluble, recombinant ecdysone receptor in a microplate-based format Europium is a lanthanide fluorophore, the presence of which can be measured using time-resolved fluorometry. […] Binding affinity and inhibitor potency may also be measured for candidate inhibitors using biosensor technology. […]

[3] = target: T1, dipteran (Lucilia cuprina) receptor (Lucilia cuprina, UniProt O18531); assay: In vitro binding studies employing purified recombinant LBDs (dipteran receptor); details: unpublished results
T1 construct: made in house
T1 sequence (O18531 442-677 limits assumed): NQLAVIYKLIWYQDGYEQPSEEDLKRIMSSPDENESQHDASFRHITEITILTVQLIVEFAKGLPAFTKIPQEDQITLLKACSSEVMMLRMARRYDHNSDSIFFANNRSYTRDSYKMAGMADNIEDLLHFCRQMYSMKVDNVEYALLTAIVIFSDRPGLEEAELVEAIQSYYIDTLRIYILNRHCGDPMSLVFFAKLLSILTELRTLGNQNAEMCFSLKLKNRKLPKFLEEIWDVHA
Text: (§1) Table 3 presents the inter-order variation apparent across a variety of Insecta EcR LBDs for those residues that line the ecdysteroid binding pocket observed in the B. tabaci structure. […] For example, in the hemipteran B. tabaci (resistant to the bisacylhydrazine compounds) residue 272 is methionine, whereas in lepidopteran species (susceptible to bisacylhydrazines) the residue at this position is a smaller valine. Attention has also been drawn to the potential importance of the residue at this position in relation to the control spectrum of bisacylhydrazine insecticides in the communication by Billas et al. (2003) reporting the crystal structure of the lepidopteran Heliothis virescens EcR/USP heterodimeric LBD. It is apparent from Table 3 of the present application that the methionine at position 272 is present in the Hemiptera, Diptera, Orthoptera and Coleoptera while the residue in this position of the Lepidoptera is valine. […] Clearly the response to bisacylhydrazines is not simply dependent on the residue at the position corresponding to 272 in B. tabaci.

[4] = system: Lepidotera versus Diptera; details: selectivity at the level of insect orders; cited from earlier work
[5] = system: whitefly (B. tabaci) receptor; assay: In vitro binding studies employing purified recombinant LBDs (whitefly receptor); parameters: species or system Bemisia tabaci; details: unpublished results
Text: as §1

[6] = system: BtEcR/BtUSP heterodimer binding to EcRE DNA; assay: Electrophoretic mobility shift assay (EMSA) of receptor binding to EcRE (hsp27 response element); assay type: biochemical, Bemisia tabaci; details: in the presence of 5mM MgCl2; compared to binding without hormone
Protocol: DNA binding function was assessed by electrophoretic mobility shift assay (EMSA). For these experiments, EcR and USP proteins were translated as above but using unlabelled methionine. The EcRE probe (hsp27 response element) was prepared by α-^32P labelling 5 pmol of annealed oligo (5′[…]3′ and 5′[…]3′) with Klenow ([…] Labelling Kit, Geneworks). This mix was then phenol/chloroform extracted, ethanol precipitated and resuspended in 100 μl of TE. Binding and electrophoresis were performed as described by (Molloy, 2000). For a 20 μl reaction mix, 2.5 μl of each translated extract was incubated with 8.0 μl of BufferA (20 mM HEPES pH 7.9, 100 mM KCI, 2 mM dithiothreitol (DTT), 1 mM EDTA, 20% (v/v) glycerol), 2 μl of 2% (v/v) NP-40, 1 μl BSA (10 mg/ml), 0.5 μl 2 mg/ml poly (dI-dC).poly(dI-dC), 6 μg single stranded DNA plus or minus 1 μl of 100 mM MgCl2. After 20 minutes at room temperature, 0.05 pmoles of labelled probe was added and the mix was incubated again for 20 minutes. One sample also had the addition of excess (1.25 pmoles) unlabelled EcRE DNA. 10 μl of the mix was analysed by electrophoresis at 4° C., 80 V in a 0.25×TBE, 5% polyacrylamide gel. After fixing and drying, radioactive species were visualized by the Molecular Dynamics Phosphorimaging system. […]

[7] = target: recombinant B. tabaci receptor LBD (BtEcR/BtUSP heterodimer); assay: Equilibrium binding studies with [3H]-ponasterone A as ligand; parameters: species or system Bemisia tabaci; details: by direct curve fitting, recombinant heterodimeric LBD
Protocol: Pilot-scale expression of recombinant heterodimeric BtEcR-BtUSP LBD was achieved by infection of suspension cultures of Sf9, Sf21 and or Hi-5 insect cells in spinner flasks or Schott bottles on a shaker platform maintained at 27° C. Insect cells infected with the virus engineered to express BtEcR/BtUSP ligand-binding domain were shown by gel electrophoresis to contain the expressed polypeptides corresponding to the two tagged domains.

In the case of `CCc1c(OC)cccc1C(=O)NN(C(=O)c1cc(C)cc(C)c1)C(C)(C)C` [RG-102240], the “effect of A110P point mutation on response of receptor to ligand” value [1] is given as “without affecting response”.

In the case of `CC(C)(C)N(NC(=O)c1ccccc1)C(=O)c1ccccc1` [compound I], the “binding in BtEcR competitive binding assay” value [2] is reported as “negligible binding”.

In the case of `O=C1OC(c2cccs2)=N/C1=C/c1ccccc1` [compound III], the “binding in BtEcR competitive binding assay” value [2] is reported as “weak-moderate binding”.

With `O=C(CSC1NCCN1)c1ccccc1` [IV] the “binding in BtEcR competitive binding assay” value [2] was “weak-moderate binding”.

For `CC(C)(C)C(=O)N1N=C(c2ccccc2)OC1(C)c1ccc(F)cc1` (centres unmarked) [compound II], the “binding in BtEcR competitive binding assay” value [2] was “negligible binding”.

For `CCc1ccc(C(=O)NN(C(=O)c2cc(C)cc(C)c2)C(C)(C)C)cc1` [RH5992], the “affinity of receptor for compound” value [3] is given as “significant affinity”, the “effectiveness against Lepidotera relative to Diptera” value [4] is given as “two to three orders of magnitude more effective” and the “binding in BtEcR competitive binding assay” value [2] is given as “negligible binding”. The “affinity of receptor for compound” value [5] was “only very low affinity”.

In the case of `CC(C)CC[C@@H](O)[C@](C)(O)[C@H]1CC[C@@]2(O)C3=CC(=O)[C@@H]4C[C@@H](O)[C@@H](O)C[C@]4(C)[C@H]3CC[C@]12C` [ponasterone A], the “effect of hormone on binding of receptor heterodimer to EcRE” value [6] is reported as “clearly enhanced binding” and the Kd [7] is reported as 1.21 ± 0.17 nM.
